Source: patent US10633350B2, “Diphenyl derivatives and uses thereof” (NOVARTIS AG, priority 2017, dated 2020)

test system: FoxO3a; experiment: FoxO3a inhibition assay (GFP-FoxO3a nuclear to cytoplasmic translocation) in U2OS GFP-FoxO3a H212R reporter cells; type: cell-based; conditions: Homo sapiens, 0.5 h, serum starved overnight, 30 minutes compound treatment, ratio of nuclear to cytosolic GFP intensity, AC50 = concentration that results in 50% activation or inhibition, read-out: FoxO AC50
Method: Phosphorylation of Akt on S473 and FoxO3a nuclear to cytoplasmic translocation were used as readouts of PI3K/Akt/mTOR pathway activation downstream of growth factor signaling.
Reporter cell line. U2OS GFP-FoxO3a H212R reporter cell line was established by transducing U2OS cells with the retroviral plasmid pLEGFP-C1 containing FoxO3a H212R transgene and selecting for G418 resistant clones.
Reporter assay. U2OS GFP-FoxO3a H212R cells were plated in 384-well plates at 4000 cells per well in 30 microliters of McCoy's 5A medium containing 10% FBS. On day 1 the cells were washed with serum free medium and serum starved overnight. On day 2 the cells were treated with different doses of the compounds for 30 minutes, fixed with 4% Paraformaldehyde for 1 hour and stained with Phospho-AKT (Ser473) antibody (Cell Signaling Technology, catalog #4060) overnight at 4° C. After nuclei staining with Hoechst 33342 (Life Technologies, catalog # H3570) the plates were imaged with InCell 2000 (GE Healthcare Bio-Sciences). FoxO3a inhibition activity is calculated as the ratio of nuclear to cytosolic GFP intensity in percent. Akt activation is measured as the total cellular intensity of Phospho-Akt antibody staining in percent. DMSO control is set as 0% activity.

Compound	AC50 [µM]
Cc1nnc(-c2cccc(-c3ccc(Cc4ccc(-n5nc(C(N)=O)cc5C)cc4)cc3)c2)o1 [Example 3-7, 5-methyl-1-(4-((3′-(5-methyl-1,3,4-oxadiazol-2-yl)-[1,1′-biphenyl]-4-yl)methyl)phenyl)-1H-pyrazole-3-carboxamide]	0.499
Cc1cc(C(N)=O)nn1-c1ccc(Cc2ccc(-c3ccc(C(=O)N4CCNCC4)cn3)cc2)cc1 [Example 27, 5-methyl-1-(4-(4-(5-(piperazine-1-carbonyl)pyridin-2-yl)benzyl)phenyl)-1H-pyrazole-3-carboxamide]	0.213
Cc1cc(C(N)=O)nn1-c1ccc(Cc2ccc(-c3ccc(CN4CCN(C5COC5)CC4)cn3)cc2)cc1 [Example 33, 5-methyl-1-(4-(4-(5-((4-(oxetan-3-yl)piperazin-1-yl)methyl)pyridin-2-yl)benzyl)phenyl)-1H-pyrazole-3-carboxamide]	0.138
Cc1nc(C(N)=O)nn1-c1ccc(Cc2ccc(-c3ccc(CN4CCN[C@@H](C)C4)nc3)cc2)cc1 [Example 36, (S)-5-methyl-1-(4-(4-(6-((3-methylpiperazin-1-yl)methyl)pyridin-3-yl)benzyl)phenyl)-1H-1,2,4-triazole-3-carboxamide]	0.183
Cc1nc(C(N)=O)nn1-c1ccc(Cc2ccc(-c3ccc(CN4CCC5(COC5)C4)cc3)cc2)cc1 [Example 38-1, 1-(4-((4′-((2-oxa-6-azaspiro[3.4]octan-6-yl)methyl)-[1,1′-biphenyl]-4-yl)methyl)phenyl)-5-methyl-1H-1,2,4-triazole-3-carboxamide]	0.002
Cc1nc(C(N)=O)nn1-c1ccc(Cc2ccc(-c3ccc(CN4C[C@H]5CN(C)C[C@H]5C4)cc3)cc2)cc1 [Example 38-3]	0.035
Cc1nc(C(N)=O)nn1-c1ccc(Cc2ccc(-c3ccc(CN4CCCC5(COC5)C4)cc3)cc2)cc1 [Example 38-6]	0.074
Cc1nc(C(N)=O)nn1-c1ccc(Cc2ccc(-c3ccc(CN4CCC(N(C)C)CC4)cc3)cc2)cc1 [Example 39-2]	0.005
Cc1nc(C(N)=O)nn1-c1ccc(Cc2ccc(-c3ccc(CN4CCCC(C(C)(C)O)C4)cc3)cc2)cc1 (centres unmarked) [Example 39-7]	0.029
Cc1nc(C(N)=O)nn1-c1ccc(Cc2ccc(-c3ccc(CN4CC(O)C4)cc3)cc2)cc1 [Example 39-8]	0.864
Cc1nc(C(N)=O)nn1-c1ccc(Cc2ccc(-c3ccc(CN4C[C@@H](C)N[C@H](C)C4)cc3)cc2)cc1 [Example 39-9]	0.123
Cc1nc(C(N)=O)nn1-c1ccc(Cc2ccc(-c3ccc(CN4CCC(C)(O)C4)cc3)cc2)cc1 (centres unmarked) [Example 39-10]	0.013
Cc1nc(C(N)=O)nn1-c1ccc(Cc2ccc(-c3ccc(CN4CC5(CCCO5)C4)cc3)cc2)cc1 [Example 39-11]	0.241
Cc1nc(C(N)=O)nn1-c1ccc(Cc2ccc(-c3ccc(CN4CCN[C@@H](CO)C4)cc3)cc2)cc1 [Example 39-12]	0.181
Cc1nc(C(N)=O)nn1-c1ccc(Cc2ccc(-c3ccc(CN4CC[C@@H](F)C4)cc3)cc2)cc1 [Example 39-13]	0.079
Cc1nc(C(N)=O)nn1-c1ccc(Cc2ccc(-c3ccc(CN4CCC(S(C)(=O)=O)C4)cc3)cc2)cc1 (centres unmarked) [Example 39-14]	0.054
Cc1nc(C(N)=O)nn1-c1ccc(Cc2ccc(-c3ccc(CN4CCC5CN(C)CC54)cc3)cc2)cc1 (centres unmarked) [Example 39-15]	0.005
Cc1nc(C(N)=O)nn1-c1ccc(Cc2ccc(-c3ccc(CN4CCCC(C)(O)C4)cc3)cc2)cc1 (centres unmarked) [Example 39-16]	0.056
Cc1nc(C(N)=O)nn1-c1ccc(Cc2ccc(-c3ccc(CN4CCN(C(C)(C)C)CC4)cc3)cc2)cc1 [Example 39-17]	0.085
Cc1nc(C(N)=O)nn1-c1ccc(Cc2ccc(-c3ccc(CN4CCNC(C)(C)C4)cc3)cc2)cc1 [Example 39-18]	0.081
Cc1nc(C(N)=O)nn1-c1ccc(Cc2ccc(-c3ccc(CN4C[C@@H](C)N[C@@H](C)C4)cc3)cc2)cc1 [Example 39-19]	0.065
Cc1nc(C(N)=O)nn1-c1ccc(Cc2ccc(-c3ccc(CN4CCC(F)(F)CC4)cc3)cc2)cc1 [Example 39-20]	0.14
Cc1nc(C(N)=O)nn1-c1ccc(Cc2ccc(-c3ccc(CN4CCN5CCCCC5C4)cc3)cc2)cc1 (centres unmarked) [Example 39-21]	0.06
Cc1nc(C(N)=O)nn1-c1ccc(Cc2ccc(-c3ccc(CN4CCCC[C@H]4CO)cc3)cc2)cc1 [Example 39-22]	0.098

Compound	AC50 [µM]
Cc1nc(C(N)=O)nn1-c1ccc(Cc2ccc(-c3ccc(CN4CCC(CO)CC4)cc3)cc2)cc1 [Example 39-23]	0.018
Cc1nc(C(N)=O)nn1-c1ccc(Cc2ccc(-c3ccc(CN4CC(C)(O)C4)cc3)cc2)cc1 [Example 39-24]	0.406
Cc1nc(C(N)=O)nn1-c1ccc(Cc2ccc(-c3ccc(CN4CCC(O)CC4)cc3)cc2)cc1 [Example 39-25]	0.105
Cc1nc(C(N)=O)nn1-c1ccc(Cc2ccc(-c3ccc(CN4C[C@H]5COC[C@H]5C4)cc3)cc2)cc1 [Example 39-26]	0.031
Cc1nc(C(N)=O)nn1-c1ccc(Cc2ccc(-c3ccc(CN4CCCC(F)C4)cc3)cc2)cc1 (centres unmarked) [Example 39-27]	0.046
Cc1nc(C(N)=O)nn1-c1ccc(Cc2ccc(-c3ccc(CN4CCCN(C)CC4)cc3)cc2)cc1 [Example 39-28]	0.039
Cc1nc(C(N)=O)nn1-c1ccc(Cc2ccc(-c3ccc(CN4C[C@H](O)[C@@H](O)C4)cc3)cc2)cc1 [Example 39-29]	0.18
Cc1nc(C(N)=O)nn1-c1ccc(Cc2ccc(-c3ccc(CN4C[C@H]5CCN(C)[C@H]5C4)cc3)cc2)cc1 [Example 39-30]	0.032
Cc1nc(C(N)=O)nn1-c1ccc(Cc2ccc(-c3ccc(CN4CCC(S(C)(=O)=O)CC4)cc3)cc2)cc1 [Example 39-31]	0.049
Cc1nc(C(N)=O)nn1-c1ccc(Cc2ccc(-c3ccc(CN4CC(F)(F)C4)cc3)cc2)cc1 [Example 39-33]	0.042
Cc1nc(C(N)=O)nn1-c1ccc(Cc2ccc(-c3ccc(CN4C[C@@H]5[C@@H](CO)[C@@H]5C4)cc3)cc2)cc1 [Example 39-34]	0.01
Cc1nc(C(N)=O)nn1-c1ccc(Cc2ccc(-c3ccc(CN4CCC(C(F)(F)F)CC4)cc3)cc2)cc1 [Example 39-35]	0.145
Cc1nc(C(N)=O)nn1-c1ccc(Cc2ccc(-c3ccc(CN4CC(CO)C4)cc3)cc2)cc1 [Example 39-36]	0.164
Cc1cc(C(N)=O)nn1-c1ccc(Cc2ccc(C34CCC(C(=O)N5CCNCC5)(CC3)CC4)cc2)cc1 [Example 42, 5-methyl-1-(4-(4-(4-(piperazine-1-carbonyl)bicyclo[2.2.2]octan-1-yl)benzyl)phenyl)-1H-pyrazole-3-carboxamide]	0.055
Cc1cc(C(N)=O)nn1-c1ccc(Cc2ccc(C34CCC(C(=O)N5CCN(C)CC5)(CC3)CC4)cc2)cc1 [Example 43, 5-methyl-1-(4-(4-(4-(4-methylpiperazine-1-carbonyl)bicyclo[2.2.2]octan-1-yl)benzyl)phenyl)-1H-pyrazole-3-carboxamide]	0.017
Cc1nc(C(N)=O)nn1-c1ccc(Cc2ccc(C3CC4(CC(C(=O)N5CCNCC5)C4)C3)cc2)cc1 (centres unmarked) [Example 44, 5-methyl-1-(4-(4-(6-(piperazine-1-carbonyl)spiro[3.3]heptan-2-yl)benzyl)phenyl)-1H-1,2,4-triazole-3-carboxamide]	0.134
Cc1cc(C(N)=O)nn1-c1ccc(Cc2ccc(-c3ccc(C(C)(C)CO)cn3)cc2)cc1 [Example 57, 1-(4-(4-(5-(1-hydroxy-2-methylpropan-2-yl)pyridin-2-yl)benzyl)phenyl)-5-methyl-1H-pyrazole-3-carboxamide]	0.049
Cc1cc(C(N)=O)nn1-c1ccc(Cc2ccc(-c3ccc(C(C)(C)O)nn3)cc2)cc1 [Example 58, 1-(4-(4-(6-(2-hydroxypropan-2-yl)pyridazin-3-yl)benzyl)phenyl)-5-methyl-1H-pyrazole-3-carboxamide]	0.225
Cc1cc(C(N)=O)nn1-c1ccc(Cc2ccc(-c3ccc(C(=O)NCC(C)(C)O)cn3)cc2)cc1 [Example 59, 6-(4-(4-(3-carbamoyl-5-methyl-1H-pyrazol-1-yl)benzyl)phenyl)-N-(2-hydroxy-2-methylpropyl)nicotinamide]	0.058
Cc1cc(C(N)=O)nn1-c1ccc(Cc2ccc(-c3cnc(C(C)(C)O)nc3)cc2)cc1 [Example 60, 1-(4-(4-(2-(2-hydroxypropan-2-yl)pyrimidin-5-yl)benzyl)phenyl)-5-methyl-1H-pyrazole-3-carboxamide]	0.083
Cc1cc(C(N)=O)nn1-c1ccc(Cc2ccc(-c3ccnc(CO)c3)cc2)cc1 [Example 61, 1-(4-(4-(2-(hydroxymethyl)pyridin-4-yl)benzyl)phenyl)-5-methyl-1H-pyrazole-3-carboxamide]	0.187
Cc1nc(C(N)=O)nn1-c1ccc(Cc2ccc(-c3ccc(O[C@H]4CCN(C)C4)cc3)cc2)cc1 [Example 62, (S)-5-methyl-1-(4-((4′-((1-methylpyrrolidin-3-yl)oxy)-[1,1′-biphenyl]-4-yl)methyl)phenyl)-1H-1,2,4-triazole-3-carboxamide]	0.02
Cc1nc(C(N)=O)nn1-c1ccc(Cc2ccc(-c3ccc(O[C@@H]4CCN(C)C4)cc3)cc2)cc1 [Example 63, (R)-5-methyl-1-(4-((4′-((1-methylpyrrolidin-3-yl)oxy)-[1,1′-biphenyl]-4-yl)methyl)phenyl)-1H-1,2,4-triazole-3-carboxamide]	0.011
